{"source": "patent US20250221405A1", "about": "“ROOT NODULE FORMATION-PROMOTING COMPOSITION, AND ROOT HAIR FORMATION-PROMOTING COMPOSITION” (KANEKA CORPORATION, priority 2022, published 2025)", "key": {"[1]": {"test_system": "Japanese mustard spinach (Haru no Senbatsu)", "test": "Experimental Example 5: foliar application, microscopic observation of root hair", "assay_type": "in vivo", "design": "key: those with a significant root hair increase observed were evaluated as AA; those with a root hair increase observed were evaluated as BB; those with no root hair increase observed were evaluated as CC; those with an overall or partial root hair decrease observed were evaluated as DD", "description": "An observation tank formed with ½ MS agar medium (0.8% agar) was prepared in an acrylic tank. Japanese mustard spinach (Haru no Senbatsu) was seeded near the surface of the observation tank. After seeding, the Japanese mustard spinach was cultivated in an incubator set in a light period (6:00-18:00, temperature 26° C., illuminance 120 μmol/m^2·s) and a dark period (18:00-6:00, temperature 18° C.). Twelve to fourteen days after the seeding, the following liquid (a composition for promoting root hair formation) was applied on the leaf surfaces of the plant body (foliar application) so as not to drip on the agar in each of the following treatments. […] A plurality of experiments were conducted by changing the date of seeding, the date of foliar application, the date of observation, and the type of the composition for promoting root hair formation and the like. Tables 5 to 9 show the composition for promoting root hair formation, the outline of operation and the observation results of root hair."}, "[2]": {"test_system": "soybeans (Fukuyutaka)", "test": "Experimental Example 3: seed coating with biosurfactant and/or KVP, number of root nodules", "assay_type": "in vivo, soybean", "conditions": "Table 3-2", "description": "A solution of SF, SL, or RL and/or KVP dissolved in water (a composition for promoting root nodule formation) as the following amount in each of the following treatments was prepared. The seeds of soybeans (Fukuyutaka) were coated using the solution in an amount of 800 μL/100 g seed to obtain coated seeds.\n(§1) A 9 cm poly pot was filled with culture soil and seeded with three coated seeds in each pot.\n(§2) After seeding, the coated seeds were cultivated in a greenhouse set at 28° C. during the day (14h) and 18° C. at night (10h).\nSeven days after the seeding, the soybeans in each pot were thinned to one plant, and each pot was irrigated with 4.3 mL of a mixture of rhizobium materials (rhizobium and azospirillum) mixed with water at a proportion of 10 g/L.\n(§3) Twenty-one days after the irrigation, the roots were washed with water so as not to remove root nodules, the culture soil was removed, and then, the root nodules formed on the roots were collected.\n(§4) After the seeding, each pot was fertilized with ½ Hoagland solution (50 mL) once a week. In addition, experiments were conducted on eight pots (eight plants) in each treatment.\nA plurality of experiments were conducted by changing the type of the composition for promoting root nodule formation and the like. Tables 3-1 and 3-2 show the amounts of SF, SL, or RL and/or KVP in the composition for promoting root nodule formation and the investigation result of the number of root nodules. Note that the number of root nodules is indicated by a relative value with Tl taken as 100, with a numerical value in parentheses indicating the average number of root nodules actually measured (pieces/plant)."}, "[3]": {"test_system": "soybeans (Fukuyutaka)", "test": "Experimental Example 2: soil irrigation with composition comprising rhizobium materials, number of root nodules", "assay_type": "in vivo, soybean", "conditions": "Table 2-2, irrigation", "description": "(§5) For each of the following treatment, to a mixture of rhizobium materials (rhizobium and azospirillum) mixed with water at a proportion of 10 g/L, SF, SL, or RL was added in the following amount to prepare a solution comprising the rhizobium materials and SF, SL, or RL (a composition for promoting root nodule formation).\nA 9 cm poly pot was filled with culture soil and seeded with three seeds of soybeans (Fukuyutaka) in each pot.\n(§6) After seeding, the seeds were cultivated in a greenhouse set at 28° C. during the day (14h) and 18° C. at night (10h).\n(§7) Seven days after the seeding, the soybeans in each pot were thinned to one plant, and each pot was irrigated with 4.3 ml of the composition for promoting root nodule formation (in the treatment T1, a mixture of rhizobium materials (rhizobium and azospirillum) mixed with water at a proportion of 10 g/L).\nas §3, §4\n(§8) A plurality of experiments were conducted by changing the type of the composition for promoting root nodule formation and the like. Tables 2-1 and 2-2 show the date of seeding, the date of irrigating, the date of investigating the number of root nodules, the composition for promoting root nodule formation, and the investigation result of the number of root nodules. Note that the number of root nodules is indicated by a relative value with T1 taken as 100, with a numerical value in parentheses indicating the average number of root nodules actually measured (pieces/plant)."}, "[4]": {"test_system": "soybeans (Fukuyutaka)", "test": "Experimental Example 1: seed coating, number of root nodules", "assay_type": "in vivo, soybean", "conditions": "Table 1-2", "description": "A solution of SF, SL, or RL dissolved in water (a composition for promoting root nodule formation) as the following amount in each of the following treatments was prepared. The seeds of soybeans (Fukuyutaka) were coated using the solution in an amount of 800 μL/100 g seed to obtain coated seeds.\nas §1, §2\nSeven days after the seeding, the soybeans in each pot were thinned to one plant, and each pot was irrigated with 4.3 ml of a mixture of rhizobium materials (rhizobium and azospirillum) mixed with water at a proportion of 10 g/L.\nas §3\nAfter the seeding, each pot was fertilized with ½ Hoagland solution once a week. In addition, experiments were conducted on eight pots (eight plants) in each treatment.\nas §8, with “1-1” for “2-1”, “1-2” for “2-2”, “nodules, the amount of SF, SL, or RL in” for “nodules,”, “Tl” for “T1”"}, "[5]": {"test_system": "soybeans (Fukuyutaka)", "test": "Experimental Example 4: soil irrigation with biosurfactant and/or KVP, root nodule number and weight, root weight", "assay_type": "in vivo, soybean", "conditions": "with rhizobium materials", "description": "as §5, with “treatments,” for “treatment,”\nA 9 cm poly pot was filled with sterilized fertilizer-free culture soil (Heiwa) and seeded three seeds of soybeans (Fukuyutaka) in each pot.\nas §6, §7, §3, §4\nas §8, with “4-1” for “2-1”, “4-2” for “2-2”, “Tl” for “T1”, “(pieces/plant). In addition, fresh root nodule weight means the weight of root nodules before drying on the day of collection and is indicated by a relative value with Tl taken as 100. Dried underground part weight means the weight of roots dried for 48 hours at 80° C. and indicated by a relative value with Tl taken as 100.” for “(pieces/plant).”"}, "[6]": {"conditions": "seed coating SL or RL 0.5 g/t seed (diluted 16000 times)"}, "[7]": {"conditions": "seed coating SL or RL 5 g/t seed (diluted 1600 times)"}, "[8]": {"conditions": "Table 4-2, single agent diluted 1000 times"}, "[9]": {"conditions": "Table 4-2, single agent diluted 10000 times"}}}
{"substance": "sophorolipid [SL]", "values": [{"measurement": "Observation Result (root hair)", "setting": "[1]; Table 6, aqueous solution diluted 1000 times", "result": "BB"}, {"measurement": "Observation Result (root hair)", "setting": "[1]; Table 6, aqueous solution diluted 2000 times", "result": "BB"}, {"measurement": "Number of Root Nodules, average number actually measured", "setting": "[2]; [6]", "result": 24.5, "unit": "pieces/plant"}, {"measurement": "Number of Root Nodules, relative value with T1 taken as 100", "setting": "[2]; [6]", "result": 104}, {"measurement": "Number of Root Nodules, average number actually measured", "setting": "[2]; [7]", "result": 24.9, "unit": "pieces/plant"}, {"measurement": "Number of Root Nodules, relative value with T1 taken as 100", "setting": "[2]; [7]", "result": 106}, {"measurement": "Number of Root Nodules, average number actually measured", "setting": "[3]; diluted 1000 times", "result": 15.7, "unit": "pieces/plant"}, {"measurement": "Number of Root Nodules, relative value with T1 taken as 100", "setting": "[3]; diluted 1000 times", "result": 134}, {"measurement": "Number of Root Nodules, average number actually measured", "setting": "[3]; diluted 5000 times", "result": 12.1, "unit": "pieces/plant"}, {"measurement": "Number of Root Nodules, relative value with T1 taken as 100", "setting": "[3]; diluted 5000 times", "result": 104}, {"measurement": "Number of Root Nodules, average number actually measured", "setting": "[3]; diluted 10000 times", "result": 11.9, "unit": "pieces/plant"}, {"measurement": "Number of Root Nodules, relative value with T1 taken as 100", "setting": "[3]; diluted 10000 times", "result": 102}, {"measurement": "Number of Root Nodules, average number actually measured", "setting": "[4]; seed coating 0.1 g/t seed", "result": 11.8, "unit": "pieces/plant"}, {"measurement": "Number of Root Nodules, relative value with T1 taken as 100", "setting": "[4]; seed coating 0.1 g/t seed", "result": 101}, {"measurement": "Number of Root Nodules, average number actually measured", "setting": "[4]; seed coating 1 g/t seed", "result": 15.3, "unit": "pieces/plant"}, {"measurement": "Number of Root Nodules, relative value with T1 taken as 100", "setting": "[4]; seed coating 1 g/t seed", "result": 131}, {"measurement": "Number of Root Nodules, average number actually measured", "setting": "[4]; seed coating 10 g/t seed", "result": 13.3, "unit": "pieces/plant"}, {"measurement": "Number of Root Nodules, relative value with T1 taken as 100", "setting": "[4]; seed coating 10 g/t seed", "result": 114}, {"measurement": "Dried Underground Part Weight, relative value with T1 taken as 100", "setting": "[5]; [8]", "result": 102}, {"measurement": "Fresh Root Nodule Weight, relative value with T1 taken as 100", "setting": "[5]; [8]", "result": 113}, {"measurement": "Number of Root Nodules, average number actually measured", "setting": "[5]; [8]", "result": 18.5, "unit": "pieces/plant"}, {"measurement": "Number of Root Nodules, relative value with T1 taken as 100", "setting": "[5]; [8]", "result": 110}, {"measurement": "Dried Underground Part Weight, relative value with T1 taken as 100", "setting": "[5]; [9]", "result": 185}, {"measurement": "Fresh Root Nodule Weight, relative value with T1 taken as 100", "setting": "[5]; [9]", "result": 105}, {"measurement": "Number of Root Nodules, average number actually measured", "setting": "[5]; [9]", "result": 17.8, "unit": "pieces/plant"}, {"measurement": "Number of Root Nodules, relative value with T1 taken as 100", "setting": "[5]; [9]", "result": 105}]}
{"substance": "rhamnolipid [RL]", "values": [{"measurement": "Observation Result (root hair)", "setting": "[1]; Table 7, aqueous solution diluted 1000 times", "result": "BB"}, {"measurement": "Observation Result (root hair)", "setting": "[1]; Table 7, aqueous solution diluted 2000 times", "result": "BB"}, {"measurement": "Observation Result (root hair)", "setting": "[1]; Table 7, aqueous solution diluted 5000 times", "result": "BB"}, {"measurement": "Number of Root Nodules, average number actually measured", "setting": "[2]; [6]", "result": 24.6, "unit": "pieces/plant"}, {"measurement": "Number of Root Nodules, relative value with T1 taken as 100", "setting": "[2]; [6]", "result": 105}, {"measurement": "Number of Root Nodules, average number actually measured", "setting": "[2]; [7]", "result": 25.3, "unit": "pieces/plant"}, {"measurement": "Number of Root Nodules, relative value with T1 taken as 100", "setting": "[2]; [7]", "result": 107}, {"measurement": "Number of Root Nodules, average number actually measured", "setting": "[3]; diluted 1000 times", "result": 13.6, "unit": "pieces/plant"}, {"measurement": "Number of Root Nodules, relative value with T1 taken as 100", "setting": "[3]; diluted 1000 times", "result": 116}, {"measurement": "Number of Root Nodules, average number actually measured", "setting": "[3]; diluted 5000 times", "result": 13.6, "unit": "pieces/plant"}, {"measurement": "Number of Root Nodules, relative value with T1 taken as 100", "setting": "[3]; diluted 5000 times", "result": 116}, {"measurement": "Number of Root Nodules, average number actually measured", "setting": "[3]; diluted 10000 times", "result": 13.4, "unit": "pieces/plant"}, {"measurement": "Number of Root Nodules, relative value with T1 taken as 100", "setting": "[3]; diluted 10000 times", "result": 115}, {"measurement": "Number of Root Nodules, average number actually measured", "setting": "[4]; seed coating 1 g/t seed", "result": 16.0, "unit": "pieces/plant"}, {"measurement": "Number of Root Nodules, relative value with T1 taken as 100", "setting": "[4]; seed coating 1 g/t seed", "result": 137}, {"measurement": "Number of Root Nodules, average number actually measured", "setting": "[4]; seed coating 10 g/t seed", "result": 13.2, "unit": "pieces/plant"}, {"measurement": "Number of Root Nodules, relative value with T1 taken as 100", "setting": "[4]; seed coating 10 g/t seed", "result": 113}, {"measurement": "Number of Root Nodules, average number actually measured", "setting": "[4]; seed coating 50 g/t seed", "result": 15.3, "unit": "pieces/plant"}, {"measurement": "Number of Root Nodules, relative value with T1 taken as 100", "setting": "[4]; seed coating 50 g/t seed", "result": 131}, {"measurement": "Dried Underground Part Weight, relative value with T1 taken as 100", "setting": "[5]; [8]", "result": 105}, {"measurement": "Fresh Root Nodule Weight, relative value with T1 taken as 100", "setting": "[5]; [8]", "result": 115}, {"measurement": "Number of Root Nodules, average number actually measured", "setting": "[5]; [8]", "result": 19.5, "unit": "pieces/plant"}, {"measurement": "Number of Root Nodules, relative value with T1 taken as 100", "setting": "[5]; [8]", "result": 116}, {"measurement": "Dried Underground Part Weight, relative value with T1 taken as 100", "setting": "[5]; [9]", "result": 105}, {"measurement": "Fresh Root Nodule Weight, relative value with T1 taken as 100", "setting": "[5]; [9]", "result": 114}, {"measurement": "Number of Root Nodules, average number actually measured", "setting": "[5]; [9]", "result": 18.5, "unit": "pieces/plant"}, {"measurement": "Number of Root Nodules, relative value with T1 taken as 100", "setting": "[5]; [9]", "result": 110}]}
